Laboratory results: US7279497B2, “Benzopyran derivatives substituted with secondary amines including imidazole, their preparation and pharmaceutical compositions containing them” (Korea Research Institute of Chemical Technology, priority 2002, dated 2007)

Columns and labels:
[1] = system: HUVECs (Human umbilical vein endothelial cells); assay: Inhibitory effects on HUVEC tube formation; type: cell-based;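 further: from minus no inhibition up to plus-plus-plus complete inhibition versus vehicle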
Outline: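 HUVECs within passage 5 were plated on bFGF-reduced polymerized Matrigel and incubated with or without compound. Tube formation assessed as changes in cell morphology by phase-contrast microscopy and photography.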

[2] = system: Chick chorioallantoic membrane (CAM); assay: CAM (chorioallantoic membrane) assay; type: in vivo
Protocol: Chick chorioallantoic membrane (CAM) assays were performed to measure the inhibitory effects on angiogenesis in vivo of the compounds of the formula 1.
Fertilized chick eggs were incubated under constant humidified (90%) egg breeder at 37° C. On the third day of incubation, about 2 mL of egg albumin was aspirated by an 18-gauge hypodermic needle through the small hole drilled at the narrow end of the eggs, to detach the developing CAM from the shell. And the shell covering the air sac was punched out and removed by forcep, and the shell membrane on the floor of the air sac was peeled away. After more incubation of two more days, sample-loaded thermanox coverslips were air-dried, and applied to the CAM surface to test the angiogenic inhibition by the test compounds. Three days later, 1 to 2 mL of 10% fat emulsion (Intralipose) was injected into the chorioallantoic and observed avascular zone under a dissecting microscope. The negative control was implanted only thermanox coverslip, while the positive control was treated with retinoic acid (1 μg/egg). […] Independent experiment was repeated three times and at least more than 20 eggs in each experiment were used.

SPF SD rats = settings: rat, in vivo, po;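 further: Six-week-old animals, two per group, followed across an observation period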
ischemic hearts = assay: Cardioprotective activity in ischemic heart model of anesthetized rats; settings: Rat in vivo, 0.3 mg/kg i.v.
Protocol: In order to determine whether the compounds of formula 1 are protective for ischemic hearts, experiments determining the anti-ischemic effects of the compounds on rats were conducted as follows. Male rats (350-450 g, obtained from the Experimental Animal Team of the Korea Research Institute of Chemical Technology) were anesthetized by the intraperitoneal injection of pentobarbital at a dose of 75 mg/kg. After trachetomy, the rats were rendered to respire artificially at a rate of 60/min with a stroke volume of 10 ml/kg. Cannulars were inserted into the fermoral vein and the fermoral artery and used for drug administration and blood pressure measurement, respectively. In the ischemic myocardial injury models, the body temperature has an important influence on the results. To avoid the change in the body temperature, a body temperature measuring probe was inserted into the rectum of each rat and the body temperature was constantly kept at 37° C. with the aid of a homeothermic blanket control unit. Afterwards, during testing, a continuous measurement was made of the mean arterial blood pressures and heart rates from the rats. For the measurement of the blood pressure, a pressure transducer (Statham P23XL, Grass Ins., MA, U.S.A.) was used. The heart rate was measured by a tachometer (ECG/RATE Coupler, Hugo Sachs Electronic, German) identified as Biotachometer. In addition, all of the changes occurring were continuously recorded through the Gould 2000 chart recorder ([…] Linearcorder W R 3310, Hugo Sachs Electronic). The left coronary artery was occluded according to the Selye H. method as follows. The rats underwent a left thoracotomy operation for partial opening of the chest and the right-side chest was pressurized by the middle finger of the left hand to push the heart out. Immediately after the left anterior descending coronary artery hereinafter referred to as (LAD) was carefully stitched using a suture needle with 5-0 silk ligature, the heart was then repositioned in the thoracic cavity while both ends of the ligature were situated outside. The opposite ligature ends were passed through a PE tube (PE100, 2.5 cm) and allowed to stand loose for 20 min for stabilization. Via the cannula inserted into the femoral vein, vehicles or drugs were administered into the rats which were rendered to stand for 30 min in order to sufficiently elicit the efficacies of the drugs. […] From the images input into the computer, the area of the normal blood stream tissue region which appeared blue in a computer monitor and the area which appeared colorless were measured. The percentage of the colorless area to the total area of each slice was calculated and multiplied by the weight of each slice to determine the area at risk (AAR) of each slice. […]

[3] = system: blood vessel formation in Matrigel plugs; assay: In vivo mouse matrigel plug assay (hemoglobin content of plug); parameters: species or system C57BL/6 mice
Protocol: Antiangiogenic activities in vivo of the compounds of the formula 1 were determined by mouse matrigel plug assay.
The mixture of Matrigel, heparin (30 units), and bFGF (25 ng) were injected subcutaneously into C57BL/6 mice. The test compounds were injected subcutaneously at 2.2 mg/mL with matrigel, or administrated orally at 2 mg/day (twice a day, each 1 mg) during 4 days (total 8 mg/mouse). After 4-7 days, the skin of the mouse was pulled back, and matrigel plug was excised. The hemoglobin contents inside the Matrigel plugs were measured using the Drabkin method and Drabkin reagent (kit 525, Sigma) for the quantitation of blood vessel formation.

COC(OC)[C@@]1(C)Oc2ccc([N+](=O)[O-])cc2[C@@H](N(Cc2ncc[nH]2)c2ccc(Cl)cc2)[C@@H]1O [Example 1, (2S,3S,4R)-3,4-dihydro-2-dimethoxymethyl-3-hydroxy-2-methyl-6-nitro-4-[N-(4-chlorophenyl)-N-(1H-imidazol-2-ylmethyl)amino]-2H-1-benzopyran]
Tube formation ([1]; 10 μM): +
Tube formation ([1]; 50 μM): +
Tube formation ([1]; 100 μM): ++
% Inhibition (positive eggs) ([2]; 0.5 μM/egg): 62%
% Inhibition (positive eggs) ([2]; 1.5 μg/egg): 84%
clinical symptoms, body weight and mortality (SPF SD rats): no significant changes
AAR/LV (%) (ischemic hearts): 33.4%
IZ/AAR (%) (ischemic hearts): 41.2%
% Inhibition (hemoglobin quantity) ([3]; S. C, 2.2 mg/mL with matrigel): 79%
% Inhibition (hemoglobin quantity) ([3]; oral, 2 mg/day during 4 days): 94%
